The source made the active and inactive calls. The calls are words filed in the database; no cut-off is given here.
Tests used:
[1] = Metabolic stability in mouse liver microsomes assessed as clearance; assay type: ADME, Microsome; details: read-out: CLH
P2X purinoceptor 7 = molecular target: T1, P2X purinoceptor 7 (Mus musculus, UniProt Q9Z1M0); assay: Antagonist activity against mouse P2X7 receptor expressed in ATP-stimulated HEK293 cells assessed as influx of PI by fluorescence dye uptake assay relative to control; assay type: cell-based
T1 sequence (Q9Z1M0 whole entry): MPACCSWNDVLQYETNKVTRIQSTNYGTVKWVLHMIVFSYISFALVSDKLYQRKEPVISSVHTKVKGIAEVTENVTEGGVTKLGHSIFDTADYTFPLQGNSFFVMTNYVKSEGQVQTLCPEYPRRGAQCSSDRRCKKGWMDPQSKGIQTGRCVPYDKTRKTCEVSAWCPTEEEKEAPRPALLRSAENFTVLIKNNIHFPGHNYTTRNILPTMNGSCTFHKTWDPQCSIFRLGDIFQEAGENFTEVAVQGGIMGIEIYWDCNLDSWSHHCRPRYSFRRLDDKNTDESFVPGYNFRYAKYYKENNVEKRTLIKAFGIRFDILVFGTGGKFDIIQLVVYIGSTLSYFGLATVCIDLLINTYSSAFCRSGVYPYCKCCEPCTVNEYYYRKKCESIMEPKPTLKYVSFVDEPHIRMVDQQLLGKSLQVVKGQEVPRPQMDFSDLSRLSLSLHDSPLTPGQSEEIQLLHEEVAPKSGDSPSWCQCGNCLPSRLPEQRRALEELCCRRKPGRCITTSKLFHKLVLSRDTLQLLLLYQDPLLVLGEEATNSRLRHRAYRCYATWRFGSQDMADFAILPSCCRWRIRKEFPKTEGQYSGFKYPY

[2] = Metabolic stability in human liver microsomes assessed as half life; assay type: ADME, Microsome
[3] = Metabolic stability in human liver microsomes assessed as clearance; assay type: ADME, Microsome; details: read-out: CLH
[4] = Metabolic stability in mouse liver microsomes assessed as half life; assay type: ADME, Microsome
[5] = molecular target: T2, P2X purinoceptor 7 (Mus musculus) (UniProt Q9Z1M0); assay: Antagonist activity against mouse P2X7 receptor expressed in ATP-stimulated HEK293 cells assessed as influx of PI at 1 uM by fluorescence dye uptake assay relative to control; assay type: cell-based; set-up: scale not given: the % may be the effect or the level left
T2 sequence (whole entry): T1 sequence (Q9Z1M0 whole entry)

[6] = molecular target: T2, P2X purinoceptor 7 (Mus musculus); assay: Antagonist activity against mouse P2X7 receptor expressed in ATP-stimulated HEK293 cells assessed as influx of PI at 200 nM by fluorescence dye uptake assay relative to control; assay type: cell-based; set-up: scale not given: the % may be the effect or the level left
[7] = Tmax in male BALB/c mouse at 10 mg/kg, po single administration measured upto 72 hrs by LC-MS/MS analysis; assay type: ADME, organism-based; details: in vivo
[8] = Clearance in male BALB/c mouse at 10 mg/kg, po single administration measured upto 72 hrs by LC-MS/MS analysis; assay type: ADME, organism-based; details: in vivo
[9] = Half life in male BALB/c mouse at 10 mg/kg, po single administration measured upto 72 hrs by LC-MS/MS analysis; assay type: ADME, organism-based; details: in vivo
[10] = AUC (0 to t) in male BALB/c mouse at 10 mg/kg, po single administration measured upto 72 hrs by LC-MS/MS analysis; assay type: ADME, organism-based; details: in vivo
[11] = Cmax in male BALB/c mouse at 10 mg/kg, po single administration measured upto 72 hrs by LC-MS/MS analysis; assay type: ADME, organism-based; details: in vivo

Row | Activity [5] | Activity [6] | SMILES | further results
1 | inactive | inactive | CS(=O)(=O)c1ccc(-c2nc(C(=O)NCc3cn(-c4ccc(Cl)cn4)nn3)cs2)cc1 | –
2 | 36.8% | 33.5% | CS(=O)(=O)c1ccc(-c2ncc(C(=O)NCc3cn(-c4cncc(Br)c4)nn3)s2)cc1 | –
3 | 39.5% | 28.6% | CS(=O)(=O)c1ccc(-c2nc(C(=O)NCc3cn(-c4ccncc4Br)nn3)cs2)cc1 | –
4 | 10% | inactive | CS(=O)(=O)c1ccc(-c2nc(C(=O)NCc3cn(-c4ccc(Br)nc4)nn3)cs2)cc1 | –
5 | 28.7% | 24.9% | CS(=O)(=O)c1ccc(-c2nc(C(=O)NCc3cn(-c4cc(-c5ccc(C(F)(F)F)s5)ccn4)nn3)cs2)cc1 | –
6 | 96.3% | 90.7% | Clc1cccc(-n2nnnc2NCc2ccccc2Oc2ccccn2)c1Cl | –
7 | 20.2% | 6% | COc1ccnc(-n2cc(CNC(=O)c3csc(-c4ccc(S(C)(=O)=O)cc4)n3)nn2)c1 | –
8 | 25.7% | 12.4% | CS(=O)(=O)c1ccc(-c2ncc(C(=O)NCc3cn(-c4ccc(F)cn4)nn3)s2)cc1 | –
9 | 28.1% | inactive | CS(=O)(=O)c1ccc(-c2ncc(C(=O)NCc3cn(-c4ccc(Cl)cn4)nn3)s2)cc1 | –

Second part, the compound before the results:

Row | SMILES | Activity [5] | Activity [6] | further results
10 | CS(=O)(=O)c1ccc(-c2ncc(C(=O)NCc3cn(-c4cc(N5CCC(F)(F)CC5)ccn4)nn3)s2)cc1 | – | – | CLint scaled [1]: 92.1 mL/min/kg; IC50 (P2X purinoceptor 7): 61 nM; half-life [2]: 79.7 min; CLint scaled [3]: 21.8 mL/min/kg; half-life [4]: 59.2 min
11 | CS(=O)(=O)c1ccc(-c2ncc(C(=O)NCc3cn(-c4ccncc4Br)nn3)s2)cc1 | 41% | 25.9% | –
12 | CS(=O)(=O)c1ccc(-c2ncc(C(=O)NCc3cn(-c4cc(-c5ccc(C(F)(F)F)s5)ccn4)nn3)s2)cc1 | 35.6% | 18.4% | –
13 | C[C@H](NC(=O)c1csc(-c2ccc(S(C)(=O)=O)cc2)n1)c1cn(-c2cc(C(F)(F)F)ccn2)nn1 | – | – | CLint scaled [1]: < 12 mL/min/kg; Tmax [7]: 7.33 h; IC50 (P2X purinoceptor 7): 98.6 nM; CL/F [8]: 1.5 mL/min/kg; half-life [9]: 443 min; half-life [2]: > 120 min; AUC(0-t) at 72 h [10]: 107000 ng·h/mL; Cmax [11]: 3230 ng/mL; CLint scaled [3]: < 12 mL/min/kg; half-life [4]: > 120 min
14 | CS(=O)(=O)c1ccc(-c2ncc(C(=O)NCc3cn(-c4cc(NC5CC(F)(F)C5)ccn4)nn3)s2)cc1 | – | – | CLint scaled [1]: 142 mL/min/kg; IC50 (P2X purinoceptor 7): 138 nM; half-life [2]: > 120 min; CLint scaled [3]: < 12 mL/min/kg; half-life [4]: 40.2 min
15 | CS(=O)(=O)c1ccc(-c2ncc(C(=O)NCc3cn(-c4ccc(Br)nc4)nn3)s2)cc1 | 42.8% | 35% | –
16 | CS(=O)(=O)c1ccc(-c2ncc(C(=O)NCc3cn(-c4cc(-c5cncc(C(F)(F)F)c5)ccn4)nn3)s2)cc1 | 49.6% | 42.8% | –
17 | CS(=O)(=O)c1ccc(-c2nc(C(=O)NCc3cn(-c4cc(Nc5cnn(C(F)F)c5)ccn4)nn3)cs2)cc1 | 11.4% | 28.7% | –
18 | CS(=O)(=O)c1ccc(-c2nc(C(=O)NCc3cn(-c4ccc(F)cn4)nn3)cs2)cc1 | 48.4% | 13.3% | –
19 | CS(=O)(=O)c1ccc(-c2nc(C(=O)NCc3cn(-c4ccnc(Br)c4)nn3)cs2)cc1 | inactive | inactive | –
20 | CS(=O)(=O)c1ccc(-c2nc(C(=O)NCc3cn(-c4cc(N5CCC(F)(F)CC5)ccn4)nn3)cs2)cc1 | – | – | CLint scaled [1]: 273 mL/min/kg; IC50 (P2X purinoceptor 7): 103 nM; half-life [2]: 32.1 min; CLint scaled [3]: 54.2 mL/min/kg; half-life [4]: 20 min
21 | CS(=O)(=O)c1ccc(-c2nc(C(=O)NCc3cn(-c4cccc(Br)n4)nn3)cs2)cc1 | 50% | 15.6% | –
22 | CS(=O)(=O)c1ccc(-c2ncc(C(=O)NCc3cn(-c4ccnc(Br)c4)nn3)s2)cc1 | inactive | inactive | –
23 | CS(=O)(=O)c1ccc(-c2nc(C(=O)NCc3cn(-c4cncc(Br)c4)nn3)cs2)cc1 | 23.9% | 17.7% | –
24 | Cc1ccnc(-n2cc(CNC(=O)c3csc(-c4ccc(S(C)(=O)=O)cc4)n3)nn2)c1 | 5.1% | inactive | –
25 | CS(=O)(=O)c1ccc(-c2nc(C(=O)NCc3cn(-c4cc(-c5cccc(C(F)(F)F)c5)ccn4)nn3)cs2)cc1 | – | – | IC50 (P2X purinoceptor 7): 449 nM
26 | CS(=O)(=O)c1ccc(-c2nc(C(=O)NCc3cn(-c4cc(-c5ccc(C(F)(F)F)cc5)ccn4)nn3)cs2)cc1 | 37% | 27.1% | –
27 | Cc1ccnc(-n2cc(CNC(=O)c3cnc(-c4ccc(S(C)(=O)=O)cc4)s3)nn2)c1 | 44.4% | 30.7% | –
28 | CS(=O)(=O)c1ccc(-c2ncc(C(=O)NCc3cn(-c4cccc(Br)n4)nn3)s2)cc1 | 45% | 10.7% | –
29 | CS(=O)(=O)c1ccc(-c2nc(C(=O)NCc3cn(-c4cc(NC5CC(F)(F)C5)ccn4)nn3)cs2)cc1 | – | – | CLint scaled [1]: 166 mL/min/kg; IC50 (P2X purinoceptor 7): 55.5 nM; half-life [2]: > 120 min; CLint scaled [3]: 13.8 mL/min/kg; half-life [4]: 32.8 min
30 | CS(=O)(=O)c1ccc(-c2ncc(C(=O)NCc3cn(-c4cc(-c5ccc(C(F)(F)F)cc5)ccn4)nn3)s2)cc1 | inactive | inactive | –
31 | CS(=O)(=O)c1ccc(-c2nc(C(=O)NCc3cn(-c4cc(Br)ccn4)nn3)cs2)cc1 | – | – | Tmax [7]: 1.17 h; CL/F [8]: 25.8 mL/min/kg; half-life [9]: 115 min; AUC(0-t) at 72 h [10]: 6510 ng·h/mL; Cmax [11]: 1300 ng/mL
32 | COc1ccnc(-n2cc(CNC(=O)c3cnc(-c4ccc(S(C)(=O)=O)cc4)s3)nn2)c1 | 9.9% | inactive | –
33 | CS(=O)(=O)c1ccc(-c2nc(C(=O)NCc3cn(-c4cc(-c5cncc(C(F)(F)F)c5)ccn4)nn3)cs2)cc1 | 32.5% | 30.3% | –
34 | CS(=O)(=O)c1ccc(-c2ncc(C(=O)NCc3cn(-c4cc(C(F)(F)F)ccn4)nn3)s2)cc1 | – | – | CLint scaled [1]: 22.8 mL/min/kg; Tmax [7]: 2 h; IC50 (P2X purinoceptor 7): 80.6 nM; CL/F [8]: 11.8 mL/min/kg; half-life [9]: 201 min; half-life [2]: > 120 min; AUC(0-t) at 72 h [10]: 14100 ng·h/mL; Cmax [11]: 2230 ng/mL; CLint scaled [3]: < 12 mL/min/kg; half-life [4]: > 120 min
35 | CS(=O)(=O)c1ccc(-c2ncc(C(=O)NCc3cn(-c4cc(-c5cccc(C(F)(F)F)c5)ccn4)nn3)s2)cc1 | 27.4% | 13.3% | –
36 | CS(=O)(=O)c1ccc(-c2ncc(C(=O)NCc3cn(-c4cc(Nc5cnn(C(F)F)c5)ccn4)nn3)s2)cc1 | 32.5% | 26.6% | –
37 | CS(=O)(=O)c1ccc(-c2nc(C(=O)NCc3cn(-c4cc(C(F)(F)F)ccn4)nn3)cs2)cc1 | – | – | CLint scaled [1]: < 12 mL/min/kg; Tmax [7]: 1.83 h; IC50 (P2X purinoceptor 7): 70.2 nM; CL/F [8]: 3.33 mL/min/kg; half-life [9]: 245 min; half-life [2]: > 120 min; AUC(0-t) at 72 h [10]: 49800 ng·h/mL; Cmax [11]: 4530 ng/mL; CLint scaled [3]: < 12 mL/min/kg; half-life [4]: > 120 min

Source: ChEMBL document CHEMBL6120956, “Discovery of a Potent, Orally Active, and Long-Lasting P2X7 Receptor Antagonist as a Preclinical Candidate for Delaying the Progression of Chronic Kidney Disease” (J Med Chem, 2024)
